Experimental data: patent US9156850B2, “Enediyne compounds, conjugates thereof, and uses and methods therefor” (Bristol-Myers Squibb Company, priority 2012, dated 2015)
Read-outs that look alike come from different tables or passages of the source.

Assays:
Format in all cases: cell-based
HL-60 leukemia cells = test: Antiproliferative activity, ATP assay, HL-60; settings: Homo sapiens
Protocol: (§1) The antiproliferative activity of compounds of this invention or their conjugates was assayed as follows. Human tumor cell lines were obtained from the American Type Culture Collection (ATCC), P.O. Box 1549, Manassas, Va. 20108, USA, and cultured according to instruction from the ATCC. Cells were seeded at 1.0×10^3 or 1.0×10^4 cells/well in 96-well plates for 3 h for ATP assays or ^3H thymidine assays, respectively. 1:3 serial dilutions of free (unconjugated) compounds or their conjugates were added to the wells. Plates were allowed to incubate for 24 to 72 h. The ^3H thymidine plates were pulsed with 1.0 μCi of ^3H-thymidine per well for the last 24 hours of the total incubation period, harvested, and read on a Top Count Scintillation Counter (Packard Instruments, Meriden, Conn.). ATP levels in the ATP plates were measured using the CELLTITER-GLO® Luminescent Cell Viability kit following the manufacturer's manual and read on a GLOMAX® 20/20 luminometer (both from Promega, Madison, Wis., USA). The EC50 values—the concentration at which an agent inhibits or reduces cell proliferation by 50%—were determined using PRISM™ software, version 4.0 (GraphPad Software, La Jolla, Calif., USA).
FIG. 11a is a plot of the antiproliferative activity of compound (IIa) against HL-60 leukemia cells, as measured by the ATP assay using a 72 h incubation period, compared against three reference compounds: doxorubicin (adriamycin), uncialamycin, and Compound A, which is a DNA alkylating agent having the following structure: […]

SET2 (leukemia) = test: Antiproliferative activity, ATP method, SET2; settings: Homo sapiens, SET-2
Protocol: as §1
(§2) The assay method was the ATP method. The cancer cell lines tested against were A2780 (ovarian), A549 (lung), CCRF-CEM (acute lymphoblastic leukemia), COLO205 (colon), DU4475 (breast), H2087 (lung, non-small cell), H661 (lung, large cell), HCT116 (colon), LNCaP (prostate), LS174T (colon), MDA MB468 (breast), MDA MB231 (breast), and SET2 (leukemia). The antiproliferative effects are reported as IC50's, i.e., the concentration of toxin that produces a 50% inhibitory effect.

A2780 (ovarian) = test: Antiproliferative activity, ATP method, A2780; settings: Homo sapiens
Protocol: as §1, §2

[1] = test system: doxorubicin-resistant ovarian cancer cell line (Adr); test: Antiproliferative activity, ATP assay, Adr; settings: Homo sapiens
Protocol: as §1
FIG. 11b is an analogous plot of antiproliferative activity against a doxorubicin-resistant ovarian cancer cell line (Adr), also using the ATP assay and a 72 h incubation period.

COLO205 (colon) = test: Antiproliferative activity, ATP method, COLO205; settings: Homo sapiens, COLO 205
Protocol: as §1, §2

[2] = test system: H2087 (lung, non-small cell); test: Antiproliferative activity, ATP method, H2087; settings: Homo sapiens, NCI-H2087
Protocol: as §1, §2

H661 (lung, large cell) = test: Antiproliferative activity, ATP method, H661; settings: Homo sapiens, NCI-H661
Protocol: as §1, §2

MDA MB468 (breast) = test: Antiproliferative activity, ATP method, MDA MB468; settings: Homo sapiens, MDA-MB-468
Protocol: as §1, §2

HCT116 (colon) = test: Antiproliferative activity, ATP method, HCT116; settings: Homo sapiens, HCT-116
Protocol: as §1, §2

LS174T (colon) = test: Antiproliferative activity, ATP method, LS174T; settings: Homo sapiens
Protocol: as §1, §2

MDA MB231 (breast) = test: Antiproliferative activity, ATP method, MDA MB231; settings: Homo sapiens, MDA-MB-231
Protocol: as §1, §2

[3] = test system: CCRF-CEM (acute lymphoblastic leukemia); test: Antiproliferative activity, ATP method, CCRF-CEM; settings: Homo sapiens
Protocol: as §1, §2

DU4475 (breast) = test: Antiproliferative activity, ATP method, DU4475; settings: Homo sapiens, DU-4475
Protocol: as §1, §2

786-O renal cancer cells = test: Antiproliferative activity, ATP assay, 786-O; settings: Homo sapiens
Protocol: as §1
The ATP assay was used, with a 72 h incubation period.

A549 (lung) = test: Antiproliferative activity, ATP method, A549; settings: Homo sapiens
Protocol: The antiproliferative activity of compounds of this invention or their conjugates was assayed as follows. […] Cells were seeded at 1.0×10^3 or 1.0×10^4 cells/well in 96-well plates for 3 h for ATP assays or ^3H thymidine assays, respectively. 1:3 serial dilutions of free (unconjugated) compounds or their conjugates were added to the wells. Plates were allowed to incubate for 24 to 72 h. The ^3H thymidine plates were pulsed with 1.0 μCi of ^3H-thymidine per well for the last 24 hours of the total incubation period, harvested, and read on a Top Count Scintillation Counter (Packard Instruments, Meriden, Conn.). […] The EC50 values—the concentration at which an agent inhibits or reduces cell proliferation by 50%—were determined using PRISM™ software, version 4.0 (GraphPad Software, La Jolla, Calif., USA).

H226 lung cancer cells = test: Antiproliferative activity, ATP assay, H226; settings: Homo sapiens
Protocol: as §1
FIG. 12b is a similar antiproliferative plot, but against H226 lung cancer cells. The ATP assay was used, with a 72 h incubation period.
FIG. 13c is another plot of the antiproliferative activity of conjugates 2H5-(IVf) and 6A4-(IVf) against H226 cells, but measured using the ATP assay, with a 72 h incubation period.

LNCaP (prostate) = test: Antiproliferative activity, ATP method, LNCaP; settings: Homo sapiens
Protocol: as §1, §2

[4] = HL-60 leukemia cells, ATP assay, 72 h incubation, read-out: EC50
[5] = SET2 cell line, ATP method, read-out: IC50
[6] = A2790 cell line, ATP method, read-out: IC50
[7] = Adr cells (doxorubicin-resistant ovarian), ATP assay, 72 h incubation, read-out: EC50
[8] = COLO205 cell line, ATP method, read-out: IC50
[9] = H2087 cell line, ATP method, read-out: IC50
[10] = H661 cell line, ATP method, read-out: IC50
[11] = MDA MB468 cell line, ATP method, read-out: IC50
[12] = HCT116 cell line, ATP method, read-out: IC50
[13] = LS174T cell line, ATP method, read-out: IC50
[14] = MCD MB231 cell line, ATP method, read-out: IC50
[15] = CCRF-CEM cell line, ATP method, read-out: IC50
[16] = DU4475 cell line, ATP method, read-out: IC50
[17] = A549 cell line, ATP method, read-out: IC50
[18] = LNCaP cell line, ATP method, read-out: IC50

C[C@@H](O)[C@@]12O[C@]13c1cc(O)c4c(c1N[C@H]2C#C/C=C\C#C[C@H]3O)C(=O)c1ccc(N)cc1C4=O [Compound (IIa), 8-aminouncialamycin]
EC50 (HL-60 leukemia cells; HL-60, 72 h): 0.00404 nM | IC50 (SET2 (leukemia)): 0.008 nM | IC50 (A2780 (ovarian)): 0.003 nM | EC50 ([1]; 72 h): 0.0612 nM | IC50 (COLO205 (colon)): 0.01 nM | IC50 [2]: 0.037 nM | IC50 (H661 (lung, large cell)): 0.053 nM | IC50 (MDA MB468 (breast)): 0.012 nM | IC50 (HCT116 (colon)): 0.007 nM | IC50 (LS174T (colon); LS174T): 0.002 nM | IC50 (MDA MB231 (breast)): 0.085 nM | IC50 ([3]; CCRF-CEM): 0.014 nM | IC50 (DU4475 (breast)): 0.002 nM | EC50 (786-O renal cancer cells; 786-0, 72 h): 0.116 nM | IC50 (A549 (lung); A549): 0.076 nM | EC50 (H226 lung cancer cells; NCI-H226, 72 h): 1 nM | IC50 (LNCaP (prostate); LNCaP): 0.001 nM

Nc1ccc(C(=O)Nc2ccc3[nH]c(C(=O)N4C[C@@H](CCl)c5c4cc(O)c4ccccc54)cc3c2)cc1 [Compound A]
EC50 (HL-60 leukemia cells; [4]): 0.00187 nM | IC50 (SET2 (leukemia); [5]): 0.002 nM | IC50 (A2780 (ovarian); [6]): 0.004 nM | EC50 [1, 7]: 0.143 nM | IC50 (COLO205 (colon); [8]): 0.019 nM | IC50 [2, 9]: 0.019 nM | IC50 (H661 (lung, large cell); [10]): 0.02 nM | IC50 (MDA MB468 (breast); [11]): 0.009 nM | IC50 (HCT116 (colon); [12]): 0.002 nM | IC50 (LS174T (colon); [13]): 0.015 nM | IC50 (MDA MB231 (breast); [14]): 0.068 nM | IC50 [3, 15]: 0.019 nM | IC50 (DU4475 (breast); [16]): 0.001 nM | IC50 (A549 (lung); [17]): 0.04 nM | IC50 (LNCaP (prostate); [18]): 0.01 nM

C[C@@H](O)[C@@]12O[C@]13c1cc(O)c4c(c1N[C@H]2C#C/C=C\C#C[C@H]3O)C(=O)c1ccc(NC(=O)c2ccc(N)cc2)cc1C4=O [Compound (IId)]
EC50 (786-O renal cancer cells; 786-0, 72 h): 0.058 nM | EC50 (H226 lung cancer cells; NCI-H226, 72 h): 0.873 nM

C[C@@H](O)[C@@]12O[C@]13c1cc(O)c4c(c1N[C@H]2C#C/C=C\C#C[C@H]3O)C(=O)c1ccccc1C4=O [Uncialamycin, uncialamycin]
EC50 (HL-60 leukemia cells; HL-60, 72 h): 0.012 nM | EC50 ([1]; 72 h): 0.085 nM

COc1cccc2c1C(=O)c1c(O)c3c(c(O)c1C2=O)C[C@@](O)(C(=O)CO)C[C@@H]3O[C@H]1C[C@H](N)[C@H](O)[C@H](C)O1 [Doxorubicin, doxorubicin]
EC50 (HL-60 leukemia cells; [4]): 5.98 nM | IC50 (SET2 (leukemia); [5]): 67.6 nM | IC50 (A2780 (ovarian); [6]): 11.2 nM | EC50 [1, 7]: 3850 nM | IC50 (COLO205 (colon); [8]): 19.7 nM | IC50 [2, 9]: 54.4 nM | IC50 (H661 (lung, large cell); [10]): 26.6 nM | IC50 (MDA MB468 (breast); [11]): 29 nM | IC50 (HCT116 (colon); [12]): 23.4 nM | IC50 (LS174T (colon); [13]): 11.1 nM | IC50 (MDA MB231 (breast); [14]): 90.5 nM | IC50 [3, 15]: 19.4 nM | IC50 (DU4475 (breast); [16]): 2.9 nM | EC50 (786-O renal cancer cells; 786-0, 786-O cells, ATP assay, 72 h incubation, read-out: EC50): 92.3 nM | IC50 (A549 (lung); [17]): 138 nM | EC50 (H226 lung cancer cells; NCI-H226, H226 cells, ATP assay, 72 h incubation, free compounds, read-out: EC50): 141 nM | IC50 (LNCaP (prostate); [18]): 5.5 nM

CNc1ccc2c(c1)C(=O)c1c(O)cc3c(c1C2=O)N[C@H]1C#C/C=C\C#C[C@@H](O)[C@@]32O[C@@]12[C@@H](C)O [Compound (IIe), 8-methylaminouncialamycin]
EC50 (786-O renal cancer cells; 786-0, 72 h): 1.72 nM | EC50 (H226 lung cancer cells; NCI-H226, 72 h): 17.4 nM

C[C@@H](O)[C@@]12O[C@]13c1cc(O)c4c(c1N[C@H]2C#C/C=C\C#C[C@H]3O)C(=O)c1ccc(NCCN)cc1C4=O [Compound (IIc)]
EC50 (786-O renal cancer cells; 786-0, 72 h): 1.27 nM | EC50 (H226 lung cancer cells; NCI-H226, 72 h): 0.986 nM
